Patent US20070135307A1, “Inhibition of tuber sprouting” (ACETO AGRICULTURAL CHEMICALS CORP., priority 2005, published 2007)

Legend:
[1] = system: Russet Norkotah potato tubers; experiment: Sprout inhibition of stored potato tubers, Russet Norkotah (% OK for fresh pack); assay type: in vivo, Solanum tuberosum
Description: (§1) The storage system was designed to duplicate a large commercial storage facility in miniature. Drums containing 150-200 pounds of potatoes were sealed and housed in a building in which temperature and humidity could be controlled. Formed in each drum is an inlet in which untreated air (ventilation air) was introduced under a perforated floor to the drum. The ventilation air moves through the pile of potatoes and is exhausted from the top of the drum to the outside of the building.
(§2) This storage ventilation was shut down for a 24 hour duration during and directly after the treatment of the chemicals. Then it is maintained for the duration of the trial, with ventilation air forced through the drums at a rate of 0.5 cubic feet per minute on a three-hour on and a three-hour off schedule.
(§3) In the spray application technique the formulations were mixed with water and sprayed on the newly harvested tubers at a rate of 5 and 10 parts per million (weight of the active to weight of the potatoes) mixed in a water carrier. The mixture was applied at 1 quart per ton of potatoes. The spray was applied via a hand held spray gun propelled with compressed air as the tubers were rotating in a cement mixer drum. This insured that all surface area is coated with the active ingredient.
(§4) The Fogs were all applied with thermal foggers built to duplicate applications of commercial thermal fogging techniques.
(§5) The custom thermal fogger's heat source was an electric hot plate set at 500 degrees F. This temperature is monitored throughout the application with a thermal couple that is inserted in a cavity just below the surface where the chemical is placed. A chamber was attached to the hot plate. A fan was mounted to the top of the chamber. The fogger was attached to the storage container with flexible tubing.
(§6) The fog was delivered to each drum through separate ports. Through the bottom port of the storage drum a perforated stinger was installed that runs the length of the drum. Flexible tubing delivered the fog air mixture from the fogger. The fog air mixture was returned to the thermal fogger through a second flexible tubing that was attached from the top of the storage drum to the bottom of the thermal fogger. The air fog mixture was recirculated through the system for five minutes.
(§7) The potatoes were monitored for sprout activity on a regular basis after treatment. When early sprout activity was observed the potatoes were first evaluated. Then at approximately 30 day intervals, 60 tubers were randomly selected from each treatment. Each tuber was rated for the length of the longest sprout on each tuber. The scale used for the rating system as is follows: • 0-Not Peeping=no sprout or swelling of eye tissue evident. • 1-Peeping=swelling of eye tissue up to a sprout length of 3 mm • 2-sprout length from 3 mm to […]. • 3-sprout length from 1 cm to 3 cm. • 4-sprout length from 3 cm to 5 cm. • 5-sprout length from 5 cm and longer
(§8) Results of each set of 60 tubers were recorded into 6 subsets of 10 tubers each (replicates). The data is summarized into PERCENT OK RE: FRESHPCK (Fresh pack). The PERCENT OK RE: FRESHPCK is the percent of the tubers that are NOT PEEPING and PEEPING categories combined together (i.e., the addition of the percentage of potatoes rated that are in the “0”-Not peeping=(no sprout or swelling of the eye tissue evident) plus “1” Peeping=(swelling of the eye tissue up to a sprout length of 3 mm.).
(§9) Analysis times are approximate days after harvest (DAH)

[2] = system: Russet Burbank potato tubers; experiment: Sprout inhibition of stored potato tubers, Russet Burbank (% OK for fresh pack); assay type: in vivo, Solanum tuberosum
Description: as §1, §2, §3, §4, §5, §6, §7, §8, §9

| Compound | % OK For Fresh Pack, Dormant + sprout up to 3 mm ([1]; 5 ppm Spray, 53 DAH) | % OK For Fresh Pack, Dormant + sprout up to 3 mm ([1]; 5 ppm Spray, 85 DAH) | % OK For Fresh Pack, Dormant + sprout up to 3 mm ([1]; 5 ppm Spray, 107 DAH) | % OK For Fresh Pack, Dormant + sprout up to 3 mm ([1]; 10 ppm Spray, 53 DAH) | % OK For Fresh Pack, Dormant + sprout up to 3 mm ([1]; 10 ppm Spray, 85 DAH) | % OK For Fresh Pack, Dormant + sprout up to 3 mm ([1]; 10 ppm Spray, 107 DAH) | % OK For Fresh Pack, Dormant + sprout up to 3 mm ([2]; 5 ppm Spray, 132 DAH) | % OK For Fresh Pack, Dormant + sprout up to 3 mm ([2]; 5 ppm Spray, 161 DAH) | % OK For Fresh Pack, Dormant + sprout up to 3 mm ([2]; 5 ppm Spray, 191 DAH) | % OK For Fresh Pack, Dormant + sprout up to 3 mm ([2]; 5 ppm Spray, 223 DAH) | % OK For Fresh Pack, Dormant + sprout up to 3 mm ([2]; 5 ppm Spray, 252 DAH) | % OK For Fresh Pack, Dormant + sprout up to 3 mm ([2]; 5 ppm Spray, 283 DAH) | other results |
| --- | --- | --- | --- | --- | --- | --- | --- | --- | --- | --- | --- | --- | --- |
| CC(C)OC(=O)Nc1cccc(Cl)c1 [CIPC A, isopropyl 3-chlorophenylcarbamate] |  |  |  |  |  |  |  |  |  |  |  |  | % OK For Fresh Pack, Dormant + sprout up to 3 mm ([1]; 16.6 ppm Fog, 53 DAH): 100.0%; % OK For Fresh Pack, Dormant + sprout up to 3 mm ([1]; 16.6 ppm Fog, 85 DAH): 86.7%; % OK For Fresh Pack, Dormant + sprout up to 3 mm ([1]; 16.6 ppm Fog, 107 DAH): 86.7% |
| CC(=O)Nc1cc(NS(=O)(=O)C(F)(F)F)c(C)cc1C [MEF, N-[2,4-dimethyl-5-[[(trifluoromethyl)sulfonyl]amino]phenyl]acetamide] | 81.7% | 11.7% | 0.0% | 93.3% | 13.3% | 0.0% |  |  |  |  |  |  |  |
| CC(C)(C)[C@@H](O)[C@@H](Cc1ccc(Cl)cc1)n1cncn1 (racemic) [PAC, (2RS,3RS)-1-(4-chlorophenyl)-4,4-dimethyl-2-(1H-1,2,4-triazol-1-yl)pentan-3-ol] | 93.3% | 13.3% | 1.7% | 86.7% | 13.3% | 0.0% |  |  |  |  |  |  |  |
| CCCCC(CC)COC(=O)COc1ccc(Cl)cc1Cl (stereo not drawn) [2,4 D LV, Isoocotyl (2-ethylhexyl) ester of 2,4-dichlorophenoxyacetic acid] |  |  |  |  |  |  | 96.7% | 30.0% | 8.3% | 0.0% | 0.0% | 0.0% |  |
| CCNC(=O)[C@@H](C)OC(=O)Nc1ccccc1 [Car, Ethyl-2-(((phenylamino)carbonyl)oxy)promanamide] |  |  |  |  |  |  | 93.3% | 8.3% | 0.0% | 0.0% | 0.0% | 0.0% |  |
| CC(C)OC(=O)Nc1cccc(Cl)c1 [CIPC 98A, isopropyl 3-chlorophenylcarbamate] |  |  |  |  |  |  |  |  |  |  |  |  | % OK For Fresh Pack, Dormant + sprout up to 3 mm ([2]; 11 ppm Fog, 132 DAH): 100.0%; % OK For Fresh Pack, Dormant + sprout up to 3 mm ([2]; 11 ppm Fog, 161 DAH): 26.7%; % OK For Fresh Pack, Dormant + sprout up to 3 mm ([2]; 11 ppm Fog, 191 DAH): 0.0%; % OK For Fresh Pack, Dormant + sprout up to 3 mm ([2]; 11 ppm Fog, 223 DAH): 0.0%; % OK For Fresh Pack, Dormant + sprout up to 3 mm ([2]; 11 ppm Fog, 252 DAH): 0.0%; % OK For Fresh Pack, Dormant + sprout up to 3 mm ([2]; 11 ppm Fog, 283 DAH): 0.0%; % OK For Fresh Pack, Dormant + sprout up to 3 mm ([2]; 16.6 ppm Fog, 132 DAH): 100.0%; % OK For Fresh Pack, Dormant + sprout up to 3 mm ([2]; 16.6 ppm Fog, 161 DAH): 26.7%; % OK For Fresh Pack, Dormant + sprout up to 3 mm ([2]; 16.6 ppm Fog, 191 DAH): 0.0%; % OK For Fresh Pack, Dormant + sprout up to 3 mm ([2]; 16.6 ppm Fog, 223 DAH): 0.0%; % OK For Fresh Pack, Dormant + sprout up to 3 mm ([2]; 16.6 ppm Fog, 252 DAH): 0.0%; % OK For Fresh Pack, Dormant + sprout up to 3 mm ([2]; 16.6 ppm Fog, 283 DAH): 0.0% |
| C#CC(C)(C)NC(=O)c1cc(Cl)cc(Cl)c1 [PRO, 3,5-dichloro-N-(1,1-dimethyl-2-propynyl)benzamide] | 100.0% | 90.0% | 18.3% | 100.0% | 80.0% | 28.3% | 100.0% | 83.3% | 71.7% | 61.7% | 60.0% | 50.0% |  |
| CCOC1Oc2ccc(OS(C)(=O)=O)cc2C1(C)C (racemic) [ETH, (RS)-2-ethoxy-2,3-dihydro-3,3-dimethylbenzofuran-5-yl methanesulfonate] | 68.3% | 11.7% | 0.0% | 93.3% | 33.3% | 3.3% |  |  |  |  |  |  |  |
| O=C(O)CCCOc1ccc(Cl)cc1Cl [2,4 DB, Dimethyl Amine of 4-(2,4-Dichloropenoxy) butyric acid] | 81.7% | 3.3% | 0.0% | 91.7% | 11.7% | 0.0% |  |  |  |  |  |  |  |
